Data set [1] can be described thus: Haemolytic assay. The settings on record: rabbit red blood cells, 440 µM, 4% rabbit erythrocytes, read-out: haemolysis. Format: cell-based. As for the experimental part:
Haemolytic activity of peptides and antifungal drugs were determined against rabbit red blood cells. Briefly, serial dilution of peptides/antifungals in PBS was mixed with rRBC (final concentration 4% v/v), incubated at 37°C for 1 h and centrifuged at 3000 rpm for 10 minutes. The release of hemoglobin in the supernatant was monitored by measuring the hemoglobin absorbance at 576 nm. The readings from cell suspension in PBS (without any additives) or 1% Triton-X100 were used as 0% or 100% haemolysis.

The test system of data set [2] is C. albicans DF2672R. Description: microbe, parasite or virus in culture. Type of data set: cell-based. The settings on record: DF2672R, 48 h; read-out: MIC in µM against Ca 2672R. As for the experimental part: (§1) The yeast strains were cultivated and suspended in Sabouraud’s Dextrose (SD) broth diluted to one sixth at a starting OD600 = ∼0.08 in a flat-bottomed microtitre plate. A serial dilution of peptide in the same broth was mixed with the inoculum to give a final peptide concentration of 0.4–22 µM. The antifungal activity was assessed by monitoring the OD600 in cycles of 30 minutes and an orbital shaking at 100 rpm using an Infinite M200 microplate reader (Tecan Group Ltd., Switzerland) for 24/48 h at 37°C. Cultures without peptides were used as positive controls and broth alone or with 22 µM peptide served as negative controls. The minimum concentration required for complete inhibition was assessed by both visible observations as well as by measuring the OD600 and taken as the MIC. Each experiment was repeated in triplicates. For studying the effects of metal ions, SD broth was adjusted with appropriate concentrations of salts to yield a final concentration of 100 and 135 mM for NaCl and KCl and 0.5–2 mM for CaCl2 and MgCl2. MIC determinations were carried out as described above. C. albicans ATCC10231 cells and salts in broth were taken as a positive control. Salts alone (NaCl, KCl, and CaCl2 and MgCl2) in broth or with 22 µM peptide served as a negative control. The effect of 5% human serum on the activities of B4010 against two C. albicans clinical isolates was determined. The human male serum was centrifuged at 13,000 rpm for 10 mins in order to remove the lipids and the supernatant was collected. The MIC values against clinical isolates of C. albicans 2672R and C. albicans 1976R were determined both in standard medium (SD broth) as well as in standard medium containing 5% serum supernatant as before.

Data set [3] deals with C. albicans ATCC10231. The data set is described as follows: microbe, parasite or virus in culture. Format: cell-based. To be noted: ATCC10231, 48 h; read-out: MIC in µM against Ca 10231. As for the experimental part:
as §1

Data set [4] deals with C. albicans ATCC2091. Description: microbe, parasite or virus in culture. Type of data set: cell-based. To be noted: ATCC2091, 48 h. Here is the method:
as §1

Data set [5] relates to C. albicans DF1976R. Description: microbe, parasite or virus in culture. Type of data set: cell-based. To be noted: DF1976R, 48 h; read-out: MIC in µM against Ca DF1976R. Here is the method: as §1
Data set [6] concerns C. albicans ATCC 10231. Format: cell-based. The settings on record: Candida albicans, 6 h, 5.5 µM. As for the experimental part:
For all the experiments, unless otherwise stated, C. albicans ATCC 10231 strain was used. B4010 (1 mg/mL) was incubated with trypsin (enzyme:peptide ratio 1∶100) at 37°C. 20 µL aliquot of this mixture was withdrawn at various time intervals (0.5, 1, 2, 4 and 6 h) and mixed with 1 µL of trypsin inhibitor. The antifungal activity of the peptide was determined by adding this mixture to 180 µL of inoculum and monitoring the growth at OD600 for 24 h. Similar experiments performed in the presence of trypsin/trypsin inhibitor (without B4010) were used as a positive control. For assessing the antifungal activity in TF, the peptide was dissolved in freshly collected rabbit TF and incubated at 37°C for 6 h. After incubation, an equal volume of an overnight culture of C. albicans (∼10^6 CFU/mL) was mixed with peptides in tear fluid and incubated at 37°C for 24 h. The final concentrations of the peptide were at 4.4, 8.8 and 22 µM. A 100 µL aliquot of serial dilutions (10^2 or 10^3 times) of this mixture were inoculated on a SD agar plate and then incubated for 48 h at 37°C. […]
To study the effects of metal ions, the broth solution containing C. albicans (OD600 = 0.4–0.6) was adjusted to appropriate final concentrations of metal ions, incubated with 5.5 µM of B4010 for 6 h and the cell viability was determined as before after 48 h. […]

The subject of data set [7] is clinical isolates of C. albicans 2672R and C. albicans 1976R. The data set is described as follows: MIC against two clinical isolates, with or without 5% human serum. To be noted: 48 h. Type of data set: cell-based. Here is the method:
as §1

Data set [8] concerns F. solani ATCC36031. The data set is described as follows: microbe, parasite or virus in culture. Type of data set: cell-based. The settings on record: ATCC36031, 48 h.
A short description of data set [9]: Intact peptide after trypsin incubation (mass spectrometry). Format: in vitro ADME. The settings on record: 6 h incubation with trypsin. As for the experimental part: For all the experiments, unless otherwise stated, C. albicans ATCC 10231 strain was used. B4010 (1 mg/mL) was incubated with trypsin (enzyme:peptide ratio 1∶100) at 37°C. 20 µL aliquot of this mixture was withdrawn at various time intervals (0.5, 1, 2, 4 and 6 h) and mixed with 1 µL of trypsin inhibitor. The antifungal activity of the peptide was determined by adding this mixture to 180 µL of inoculum and monitoring the growth at OD600 for 24 h. Similar experiments performed in the presence of trypsin/trypsin inhibitor (without B4010) were used as a positive control. For assessing the antifungal activity in TF, the peptide was dissolved in freshly collected rabbit TF and incubated at 37°C for 6 h. After incubation, an equal volume of an overnight culture of C. albicans (∼10^6 CFU/mL) was mixed with peptides in tear fluid and incubated at 37°C for 24 h. The final concentrations of the peptide were at 4.4, 8.8 and 22 µM. A 100 µL aliquot of serial dilutions (10^2 or 10^3 times) of this mixture were inoculated on a SD agar plate and then incubated for 48 h at 37°C. Culture alone and culture with 50% tear fluid served as the positive control. The data was expressed in % killing with respect to culture without tear fluid.
Supplementary file pone.0087730.s002.tif: Figure S2 Positive charge electrospray ionization mass spectrometry of B4010 after incubation with trypsin (enzyme:B4010 = 1∶100). […]

The test system of data set [10] is F. solani DM3782. The data set is described as follows: microbe, parasite or virus in culture. To be noted: 48 h. Type of data set: cell-based.
Data set [11] relates to C57BL6 wild type mice. Description: In vivo acute toxicity. As for the experimental part:
Acute toxicity of B4010 was assessed with C57BL6 (6–8 weeks old) wild type mice. Two healthy wild type mice were chosen for each routes of administration. B4010 was delivered through intra-peritoneal (200 mg/kg) or (100 mg/kg) intra-venous routes. Two animals were used for each administration and monitored through 24/48 h to determine mortality, or signs of toxicity.

Values after ≈ are worked out from the molar mass of the structure shown. Like-named read-outs stand apart in the source and are kept apart here. Bridge positions count the residues as written; N and C are the ends. Peptide text beside a SMILES is read from it. I, II: the chains in the order shown.

For orientation: fraction remaining means what is left of the initial amount, in per cent. Take `CC(C)[C@H](NC(=O)[C@H](CCCCN)NC(=O)[C@H](CCCNC(=N)N)NC(=O)CNC(=O)[C@@H](N)CCCNC(=N)N)C(=O)N[C@H](C(=O)N[C@@H](CCCNC(=N)N)C(=O)N[C@@H](CCCNC(=N)N)C(=O)NCCCC[C@H](NC(=O)[C@H](CCCNC(=N)N)NC(=O)[C@H](CCCNC(=N)N)NC(=O)[C@@H](NC(=O)[C@@H](NC(=O)[C@H](CCCCN)NC(=O)[C@H](CCCNC(=N)N)NC(=O)CNC(=O)[C@@H](N)CCCNC(=N)N)C(C)C)C(C)C)C(=O)NCCCC[C@H](NC(=O)[C@H](CCCCNC(=O)[C@H](CCCNC(=N)N)NC(=O)[C@H](CCCNC(=N)N)NC(=O)[C@@H](NC(=O)[C@@H](NC(=O)[C@H](CCCCN)NC(=O)[C@H](CCCNC(=N)N)NC(=O)CNC(=O)[C@@H](N)CCCNC(=N)N)C(C)C)C(C)C)NC(=O)[C@H](CCCNC(=N)N)NC(=O)[C@H](CCCNC(=N)N)NC(=O)[C@@H](NC(=O)[C@@H](NC(=O)[C@H](CCCCN)NC(=O)[C@H](CCCNC(=N)N)NC(=O)CNC(=O)[C@@H](N)CCCNC(=N)N)C(C)C)C(C)C)C(=O)N[C@@H](CCCCN)C(=O)O)C(C)C` [B4010] (I: H-RGRKVVRRKKK-OH / II: H-RGRKVVRRK / III: H-RGRKVVRR / IV: H-RGRKVVRR; amide I:9-IV:C, I:10-II:C, II:9-III:C; N-terminus and C-terminus assumed): the hemolysis at 1 h, 440 µM in data set [1] is less than 1%. The MIC in [2] stood at 0.37 µM (≈ 1.69 µg/mL); in data set [3], 1.4 µM (≈ 6.39 µg/mL); in data set [4] (read-out: MIC), 0.7 µM (≈ 3.19 µg/mL); in data set [4] (read-out: MIC in µM against Ca 2091), 0.7 µM (≈ 3.19 µg/mL); in data set [5] it was 0.37 µM (≈ 1.69 µg/mL); in data set [7], 0.37 µM (≈ 1.69 µg/mL). Moreover, the MIC in [8] and in data set [10] was 1.4 µM (≈ 6.39 µg/mL) in each case. The compound further came in with a viable cells in [6] of 40%. In data set [9], this compound registered a fraction remaining at 6 h, 1 mg/mL of approximately 20%. The acute toxicity entry in data set [11] (IP 200 mg/kg) is reported as “no sign of mortality, morbidity or toxicity”; in [11] (IV 100 mg/kg) it was “no sign of mortality, morbidity or toxicity”.

These data come from publication PMC3912015, “Synthetic Multivalent Antifungal Peptides Effective against Fungi” (PLoS ONE, 2014).
